Source: US20110262407A1, “TREATMENT WITH ALPHA7 SELECTIVE LIGANDS” (Targacept, Inc., priority 2008, published 2011)
Where two headings read alike, the source gives them in different places.

What was measured:
[1] = tested on: hippocampal progenitor cells; details: for proliferation of progenitor cells in the hippocampus: 129SvEv mice; for magnitude of increase in proliferation of hippocampal progenitor cells: oral gavage, vs vehicle
Excerpt: Since new neurons develop from the progenitor cells in the hippocampus, measuring the proliferation of this cell population may be used as an indicator of the full neurogenesis process. Hippocampal neurogenesis can be evaluated by measuring the incorporation of deuterium from heavy water into the DNA of progenitor cells and the rate of label incorporation reflects the rate of cellular proliferation. Fluoxetine, a known neurogenic antidepressant, was used as the positive control and as a comparator to the nicotinic ligands.
Mice were labeled for the last 10-11 days of the drug treatment period. Tissue processing and analysis: At the end of treatment and label, mice were sacrificed, the hippocampus was dissected from the brain and digested with papain and progenitor cells were isolated by Percoll fractionation. DNA was purified from the isolated progenitor cells using a DNEasy tissue kit (Qiagen, Valencia, Calif.), then processed and analyzed by GC/MS. DNA was enzymatically hydrolyzed to free deoxyribonucleosides, and the deoxyribose moiety of purine deoxyribonucleosides was converted to the pentafluorobenzyl triacetate derivative. […] Incorporation of ^2H into purine deoxyribose was quantified as the molar excess fraction M1 (EM1), i.e. the increase over natural abundance (background), determined from the fractional M1 value in unlabeled DNA standards from calf thymus.
Concurrent analysis of DNA from bone marrow cells, which are fully turned over in 1 week provides an internal reference factor in each animal to correct for variations in body water ^2H enrichment. The fraction of newly divided progenitor cells was calculated as the ratio of EM1 in purine deoxyribose from progenitor cell DNA to the corresponding EM1 from enrichment in bone marrow DNA.

[2] = target: T1, alpha7 nAChR (Rattus norvegicus, UniProt Q05941); experiment: displacement studies using 3H-MLA in rat hippocampal tissues; type: binding
T1 construct: displacement studies using ^3H-MLA in rat hippocampal tissues; from tissue; host or cells: rat hippocampus
T1 sequence (Q05941 23-502): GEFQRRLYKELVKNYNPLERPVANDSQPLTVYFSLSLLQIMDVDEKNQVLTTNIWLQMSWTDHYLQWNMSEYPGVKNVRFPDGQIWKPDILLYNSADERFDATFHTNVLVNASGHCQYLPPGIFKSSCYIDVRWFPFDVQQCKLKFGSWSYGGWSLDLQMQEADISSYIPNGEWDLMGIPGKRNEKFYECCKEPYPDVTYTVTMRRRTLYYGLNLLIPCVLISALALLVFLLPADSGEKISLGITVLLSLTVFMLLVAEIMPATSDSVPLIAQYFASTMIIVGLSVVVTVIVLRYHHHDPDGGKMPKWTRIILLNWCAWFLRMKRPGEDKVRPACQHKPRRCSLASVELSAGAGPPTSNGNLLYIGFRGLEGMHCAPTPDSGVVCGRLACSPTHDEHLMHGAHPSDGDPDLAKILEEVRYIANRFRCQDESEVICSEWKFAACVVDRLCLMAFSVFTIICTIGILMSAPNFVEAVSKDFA

[3] = tested on: other nicotinic receptors, including alpha4beta2; experiment: binding affinity for other nicotinic receptors ([3H]-nicotine binding)
[4] = tested on: microglia; details: mice
Excerpt: The proliferation of microglial cells is an early event in the activation process in animal models of neuroinflammation. Microglial activation is thought to contribute to the pathology of many CNS neuro-inflammatory and neurodegenerative disorders.

[5] = tested on: GP8.3 cells; experiment: ionizing radiation damage to rat brain vasculature endothelial cells; type: cell-based
Procedure: Cells were cultured in α-MEM/Ham's F10, 10% FBS, 50 IU/mL penicillin, 50 μg/mL streptomycin, […] L-glutamine, and 250 μg/mL Geneticin and maintained in a humidified atmosphere containing 5% CO2 at 37° C. Intracellular reactive oxygen species (ROS) generation was measured in GP8.3 cells using 2′7′ dichlorodihydrofluorescein diacetate (DCFH-DA). Cells were incubated with 20 μM DCFH-DA in phosphate buffered saline (PBS) for 30 min prior to irradiation. The fluorescence intensity was measured at excitation wavelength 485 nm and emission wavelength 530 nm using a Bio-Tek FL500 microplate fluorescence reader. Western blot analysis: GP8.3 cells were collected following treatment and protein was separated by polyacrylamide gel electrophoresis (PAGE) on a 12% gel. Primary goat anti-ICAM-1 and mouse anti-β-actin were used. The secondary antibody was horse radish peroxidase (HRP)-conjugated secondary antibodies. Northern blot analysis: Total RNA was isolated using Tri-ZOL reagent. cDNA probes were labeled with α32P-dCTP by the random primer extension method. The cDNA of rat ICAM-1 was synthesized. Cell viability was determined using a modified 3-(4,5-Dimethylthiazol-2-yl)-2,5-Diphenyltetrazolium Bromide (MTT) assay. Briefly, 5,000 cells/well were plated in 24-well plates and incubated overnight. […] At the end of the follow-up period, cells were incubated with MTT in PBS for 4 h. Cell lysis detergent (20% SDS and 50% dimethylformamide, pH 4.7, in PBS) was then added and the plates incubated overnight at 37° C. A 100 μl aliquot of the soluble fraction was then transferred to 96-well microplates, and the absorbance at 570 nm measured using an Enzyme-Linked ImmunoSorbent Assay (ELISA) plate reader.

[6] = tested on: PC12 cells; experiment: neuroprotection against Abeta(1-42) in PC12 cells; type: cell-based, rat
Excerpt: It has been shown that nicotine-induced complex formation between the alpha7 nicotinic acetylcholine receptor (nAChR) and the tyrosine-phosphorylated enzyme Janus kinase 2 (JAK2) results in subsequent activation of phosphatidylinositol-3-kinase (PI-3-K) and Akt. Nicotine interaction with the alpha7 nAChR inhibits Aβ (1-42) interaction with the same receptor, and Aβ (1-42)-induced apoptosis is prevented through nicotine-induced activation of JAK2. These effects can be shown by measuring markers of cytotoxicity, including the cleavage of the nuclear protein poly(ADP-ribose) polymerase (PARP), the induction of caspase 3, or cell viability.
PC12, rat pheochromocytoma cells, were maintained in proliferative growth phase in Dulbecco's modified Eagle's medium supplemented with 10% horse serum, 5% fetal calf serum, and antibiotics (penicillin/streptomycin). Apoptosis was determined by assessing the cleavage of the DNA-repairing enzyme PARP using a Western blot assay. […] Caspase 3 enzyme activity was determined with a fluorogenic substrate for caspase-3 in crude PC12 cell extracts. […] The substrate emits a blue fluorescence when excited at a wavelength of 360 nm. When cleaved from the peptide by the caspase 3 enzyme activity in the cell lysate, free 7-amino-4-methyl Coumarin is released and can be detected by its yellow/green emission at 460 nm. […]

[7] = target: T2, human alpha7 nicotinic receptors (Homo sapiens, UniProt P36544); experiment: electrophysiology functional assay in Xenopus laevis oocytes; type: cell-based
T2 construct: expressed in transfected cells; host or cells: Xenopus laevis oocytes (transient expression)
T2 sequence (P36544 23-502): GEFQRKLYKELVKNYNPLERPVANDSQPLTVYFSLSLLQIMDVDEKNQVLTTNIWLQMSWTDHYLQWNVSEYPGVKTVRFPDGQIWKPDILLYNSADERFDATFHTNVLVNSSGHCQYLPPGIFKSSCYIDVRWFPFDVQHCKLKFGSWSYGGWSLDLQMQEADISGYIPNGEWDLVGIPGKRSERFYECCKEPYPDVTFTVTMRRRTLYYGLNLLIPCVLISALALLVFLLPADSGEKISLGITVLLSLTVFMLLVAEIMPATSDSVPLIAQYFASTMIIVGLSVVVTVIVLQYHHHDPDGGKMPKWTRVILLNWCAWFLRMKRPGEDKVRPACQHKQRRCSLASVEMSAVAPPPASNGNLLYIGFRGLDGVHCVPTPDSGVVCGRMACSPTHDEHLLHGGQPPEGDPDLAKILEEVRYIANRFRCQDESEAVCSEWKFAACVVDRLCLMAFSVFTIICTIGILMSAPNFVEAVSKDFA

[8] = target: alpha4beta2 (Homo sapiens, UniProt P17787+P43681); experiment: functional agonism at alpha4beta2
alpha4beta2, sequence (P43681 29-627 limits assumed): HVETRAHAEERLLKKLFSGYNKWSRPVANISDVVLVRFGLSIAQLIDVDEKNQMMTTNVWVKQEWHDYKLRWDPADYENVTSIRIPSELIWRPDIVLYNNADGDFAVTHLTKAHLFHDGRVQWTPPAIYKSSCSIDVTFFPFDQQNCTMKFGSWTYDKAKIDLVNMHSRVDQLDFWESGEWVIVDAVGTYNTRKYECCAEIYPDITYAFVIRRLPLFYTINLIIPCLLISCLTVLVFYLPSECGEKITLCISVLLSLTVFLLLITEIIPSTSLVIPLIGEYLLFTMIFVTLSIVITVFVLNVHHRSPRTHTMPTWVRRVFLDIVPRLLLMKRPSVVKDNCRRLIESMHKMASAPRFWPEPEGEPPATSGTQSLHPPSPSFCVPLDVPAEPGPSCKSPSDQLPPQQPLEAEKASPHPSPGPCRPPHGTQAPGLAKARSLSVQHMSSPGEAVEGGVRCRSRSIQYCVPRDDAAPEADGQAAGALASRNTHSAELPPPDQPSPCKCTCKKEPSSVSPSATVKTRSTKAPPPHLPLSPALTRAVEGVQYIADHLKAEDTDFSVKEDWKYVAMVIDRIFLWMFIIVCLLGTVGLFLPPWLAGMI
alpha4beta2, sequence (P17787 26-502): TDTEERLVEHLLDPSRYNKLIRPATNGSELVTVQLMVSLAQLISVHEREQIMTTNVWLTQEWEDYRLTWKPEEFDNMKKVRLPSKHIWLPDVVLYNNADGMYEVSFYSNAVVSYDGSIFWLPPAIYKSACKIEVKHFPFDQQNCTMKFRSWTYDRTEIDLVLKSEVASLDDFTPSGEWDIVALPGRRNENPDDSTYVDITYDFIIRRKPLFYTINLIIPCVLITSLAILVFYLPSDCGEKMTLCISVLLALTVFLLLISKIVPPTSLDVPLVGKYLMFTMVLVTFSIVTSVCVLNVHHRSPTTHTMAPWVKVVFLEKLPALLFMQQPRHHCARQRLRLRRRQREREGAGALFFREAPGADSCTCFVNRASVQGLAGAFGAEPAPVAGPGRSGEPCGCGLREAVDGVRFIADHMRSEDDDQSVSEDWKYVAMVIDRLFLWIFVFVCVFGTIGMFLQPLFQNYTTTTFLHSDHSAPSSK
Excerpt: […]. […] […]

Compound: CN1CCCC1c1cccnc1 (centres unmarked) [Compound C, nicotine, reference compound]
- proliferation of progenitor cells in the hippocampus ([1]; repeat administration 1 mg/kg/day p.o.): increase the proliferation of progenitor cells
- affinity for alpha7 nAChR ([2]; displacement of [3H]-MLA): high affinity
- binding to alpha4beta2 [3]: high affinity
- LPS-induced neuroinflammation (microglial proliferation) ([4]; 0.1 mg/kg p.o.): decreased LPS-induced neuroinflammation

Compound: Cc1ccc(C(=O)N[C@@H]2C3CCN(CC3)[C@H]2Cc2cccnc2)s1 [Compound A, 5-methyl-N-[(2S,3R)-2-(pyridin-3-ylmethyl)-1-azabicyclo[2.2.2]oct-3-yl]thiophene-2-carboxamide]
- magnitude of increase in proliferation of hippocampal progenitor cells ([1]; 0.1 mg/kg, 3 weeks): 36%
- magnitude of increase in proliferation of hippocampal progenitor cells ([1]; 0.3 mg/kg, 3 weeks): 24%
- magnitude of increase in proliferation of hippocampal progenitor cells ([1]; 1 mg/kg, 3 weeks): 30%
- proliferation of progenitor cells in the hippocampus ([1]; repeat administration 0.1-1 mg/kg/day p.o.): increase the proliferation of progenitor cells
- radiation-induced up-regulation of ICAM1 mRNA and protein ([5]; pre-incubation (10 μM per FIG. 7)): ameliorated
- radiation-induced up-regulation of ROS ([5]; pre-incubation (10 μM per FIG. 8)): abolished
- radiation-induced up-regulation of IL-6 mRNA and protein ([5]; pre-incubation with 10 μM): abolished
- LPS-induced neuroinflammation (microglial proliferation) ([4]; 1 mg/kg p.o.): decreased LPS-induced neuroinflammation

Compound: CNC1(C)C2CCC(C2)C1(C)C (centres unmarked) [mecamylamine, reference compound]
- effect on the Compound A-induced changes (IL-6, ICAM-1, ROS) ([5]; antagonist with Compound A): reversed

Compound: c1cncc(C2CCC3CCN2CC3)c1 (centres unmarked) [Compound B, 2-(3-pyridinyl)-1-azabicyclo[3.2.2]nonane]
- Ki [2]: 1 to 2 nM
- cell survival in PC-12 cells exposed to lethal amounts of Abeta(1-42) ([6]; FIG. 10): neuroprotective
- neuroprotection against Aβ (1-42) via JAK2/PI-3K cascade (PARP cleavage) ([6]; PC12 cells): exerts neuroprotective effects
- Emax [7]: > 50%
- functional agonism at alpha4beta2 [8]: not functionally agonistic
- binding to alpha4beta2 [3]: binds to alpha4beta2

Compound: CNCCC(Oc1ccc(C(F)(F)F)cc1)c1ccccc1 (centres unmarked) [fluoxetine, Fluoxetine, reference compound]
- increase in proliferation of hippocampal progenitor cells ([1]; 10 mg/kg po, 3 weeks, positive control): 35%
